Assay results reported in patent US11390621B2, “Chiral indole compounds and their use” (ARIAGEN, INC., priority 2019, dated 2022).
“And” between values parts separate entries of the source, which are not always exact repeats. Identical values can stand only once. Like-named read-outs stand apart in the source and are kept apart here. Marks after values point to notes of the source that are not given here.

Experiments:
[1] = biological target: T1, AhR (Homo sapiens, UniProt P35869); experiment: EROD assay (7-ethoxy-resorufin-O-deethylase; CYP1A1 activity) in human HepG2 cells; type: cell-based
T1 construct: host or cells: human HepG2 cells
T1 sequence (P35869 11-848): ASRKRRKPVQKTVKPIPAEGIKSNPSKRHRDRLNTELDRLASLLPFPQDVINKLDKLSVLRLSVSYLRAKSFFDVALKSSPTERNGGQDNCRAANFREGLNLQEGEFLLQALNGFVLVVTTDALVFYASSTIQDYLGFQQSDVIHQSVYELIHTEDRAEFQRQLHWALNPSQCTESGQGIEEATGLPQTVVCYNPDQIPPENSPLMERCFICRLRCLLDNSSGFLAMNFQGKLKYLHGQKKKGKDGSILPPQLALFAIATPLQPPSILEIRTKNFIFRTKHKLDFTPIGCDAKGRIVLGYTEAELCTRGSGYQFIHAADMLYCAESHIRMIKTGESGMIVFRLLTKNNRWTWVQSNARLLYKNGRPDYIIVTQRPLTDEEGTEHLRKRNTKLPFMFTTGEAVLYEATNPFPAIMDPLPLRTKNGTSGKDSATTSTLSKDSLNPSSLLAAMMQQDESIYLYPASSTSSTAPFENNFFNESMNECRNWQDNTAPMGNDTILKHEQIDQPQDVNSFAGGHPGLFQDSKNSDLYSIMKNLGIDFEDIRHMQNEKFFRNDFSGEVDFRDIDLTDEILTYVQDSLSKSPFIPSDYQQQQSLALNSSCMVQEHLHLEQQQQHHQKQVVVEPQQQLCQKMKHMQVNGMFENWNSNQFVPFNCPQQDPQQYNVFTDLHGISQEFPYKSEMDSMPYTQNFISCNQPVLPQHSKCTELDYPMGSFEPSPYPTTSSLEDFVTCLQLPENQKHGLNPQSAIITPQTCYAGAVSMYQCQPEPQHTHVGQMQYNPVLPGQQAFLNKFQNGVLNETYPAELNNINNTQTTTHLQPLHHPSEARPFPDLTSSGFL
How it was run: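 HepG2 cells (5,000/well) were treated with compounds for 20 h at 37° C. Medium was then replaced with 7-ethoxyresorufin for 30 min at 37° C, and the reaction was stopped with methanol. CYP1A1 activity was read as fluorescence (ex 530/em 590 nm), giving EC50 and maximal signal.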

[2] = In vivo pharmacokinetic studies in rats; set-up: species or system SD rats; conditions: rats; for AUC: SD; for AUC(0-t): read-out: AUClast; for Tmax at 1 day: read-out: Tmax
How it was run: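 Mice and rats (N=3/group) dosed IV at 2 mg/kg in DMSO or PO at 10, 30 or 40 mg/kg in PEG400/Tween 80 50/50; PEG400/Kolliphor HS15/oleic acid 45/45/10 used for one repeat-dose rat study. Repeat dosing in rats was PO 10 mg/kg QD for 5 days. Plasma sampled pre-dose to 24 h post-dose, measured by HPLC.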

[3] = In vivo pharmacokinetic studies in mice; set-up: species or system Balb/C mice; conditions: for AUC(0-t): read-out: AUClast; for AUC(0-inf): read-out: AUCinf
[4] = Sprague-Dawley (SD), rat, plasma, po, 10 mg/kg, repeat 10 mg/kg PO QD, Day 1, Mean of 3 animals
[5] = Sprague-Dawley, rat, plasma, po, 10 mg/kg, repeat 10 mg/kg PO QD, Day 1, individual animal
[6] = Sprague-Dawley, rat, plasma, po, 10 mg/kg, repeat 10 mg/kg PO QD, Day 5, Mean
[7] = Sprague-Dawley, rat, plasma, po, 10 mg/kg, repeat 10 mg/kg PO QD, Day 5, individual animal
[8] = repeat 10 mg/kg PO QD, Day 1, individual animal
[9] = repeat 10 mg/kg PO QD, Day 5, individual animal
[10] = Balb/C, mouse, plasma, mice, single 40 mg/kg oral dose
[11] = mice, single 40 mg/kg oral dose
[12] = mouse, plasma, Balb/C mice, single dose IP 40 mg/kg
[13] = mouse, plasma, Balb/C mice, single dose IV 5 mg/kg
[14] = mouse, plasma, Balb/C mice, single dose PO 10 mg/kg
[15] = mouse, plasma, Balb/C mice, single dose PO 40 mg/kg

CC[C@H](N)c1csc(C(=O)c2c[nH]c3cc(F)ccc23)n1 [ARI-186, (S)-(4-(1-aminopropyl)thiazol-2-yl)(6-fluoro-1H-indol-3-yl)methanone]
EC90 ([1]; HepG2, human HepG2 cells, Plate 1): 7.4 nM | fold more potent than ARI-164 by EC50 ([1]; human HepG2 cells): 17.8 × | fold more potent than ARI-164 by EC90 ([1]; human HepG2 cells): 18.0 × | fold more potent than ARI-187 by EC50 ([1]; human HepG2 cells): 9.5 × and 9.6 × | fold more potent than ARI-187 by EC90 ([1]; human HepG2 cells): 20.5 × and 20.6 × | EC50 ([1]; human HepG2 cells, Plate 1): 5.8 nM | AUC ([2]; rat, plasma, po, 10 mg/kg, repeat oral dosing 10 mg/kg QD, read-out: AUC on day 1): 5940 ng·h/mL | AUC ([2]; rat, plasma, po, 10 mg/kg, repeat oral dosing 10 mg/kg QD, read-out: AUC on day 5): 29100 ng·h/mL | AUC(0-inf) [2, 4]: 6480 ng·h/mL | Cmax at 1 day [2, 4]: 399 ng/mL | MRT inf at 1 day [2, 4]: 10.1 h | MRT last at 1 day [2, 4]: 8.06 h | half-life at 1 day [2, 4]: 6.04 h | AUC(0-t) [2, 4]: 5940 ng·h/mL | Tmax at 1 day [2, 4]: 6.67 h | AUC(0-t) ([2]; Sprague-Dawley (SD), rat, plasma, po, 10 mg/kg, repeat 10 mg/kg PO QD, Day 5, individual animal): 33600 ng·h/mL | AUC(0-inf) [2, 5]: 6920 ng·h/mL | Cmax at 1 day [2, 5]: 397 ng/mL | MRT inf at 1 day [2, 5]: 10.5 h | MRT last at 1 day [2, 5]: 8.14 h | half-life at 1 day [2, 5]: 6.44 h | AUC(0-t) [2, 5]: 6260 ng·h/mL | Tmax at 1 day [2, 5]: 8 h | Cmax at 5 day [2, 6]: 1580 ng/mL | MRT last at 5 day [2, 6]: 11.5 h | Tmax at 5 day [2, 6]: 4.67 h | AUC(0-t) [2, 6]: 29100 ng·h/mL | Cmax at 5 day [2, 7]: 1610 ng/mL | MRT last at 5 day [2, 7]: 11.6 h | behaviour of exposure after 5 days of repeat dosing (in words) ([2]; 10 mg/kg PO QD for 5 days): accumulation towards steady state | AUCinf [2, 8]: 6000 ng·h/mL and 6510 ng·h/mL | AUClast [2, 8]: 5400 ng·h/mL and 6150 ng·h/mL | Cmax [2, 8]: 359 ng/mL and 441 ng/mL | MRTinf [2, 8]: 10.9 h and 8.93 h | MRTlast [2, 8]: 8.40 h and 7.63 h | T1/2 [2, 8]: 6.45 h and 5.22 h | Tmax [2, 8]: 4 h | AUClast [2, 9]: 24600 ng·h/mL | Cmax [2, 9]: 1310 ng/mL and 1810 ng/mL | MRTlast [2, 9]: 11.4 h | Tmax [2, 9]: 4 h | accumulation (AUC day 5 vs day 1) ([2]; repeat oral dosing 10 mg/kg QD): 4.9 × | F* ([3]; Balb/C mice, single dose IP 40 mg/kg (value marked **)): 81.4** % | F* ([3]; Balb/C mice, single dose PO 10 mg/kg): 63.0% | F* ([3]; Balb/C mice, single dose PO 40 mg/kg (value marked **)): 75.7** % | AUC [3, 10]: 73900 ng·h/mL | bioavailability [3, 10]: 75.7% | half-life ([3]; Balb/C, mouse, plasma, mice, read-out: half-life (converted)): ~7.6 h | improvement in AUC over ARI-164 (fold) [3, 11]: 24.6 × | improvement in oral bioavailability over ARI-164 (fold) [3, 11]: 5.0 × | Cmax [3, 12]: 6230 ng/mL | MRT last [3, 12]: 11.2 h | Tmax [3, 12]: 0.5 h | AUC(0-t) [3, 12]: 79400 ng·h/mL | Cmax [3, 13]: 2130 ng/mL | MRT inf [3, 13]: 9.55 h | MRT last [3, 13]: 6.99 h | Tmax [3, 13]: 0.083 h | clearance [3, 13]: 6.18 mL/min/kg | AUC(0-inf) [3, 13]: 13500 ng·h/mL | AUC(0-t) [3, 13]: 12200 ng·h/mL | half-life ([3]; mouse, plasma, Balb/C mice, single dose IV 5 mg/kg, read-out: T1/2 (converted)): 7.62 h | Vd ([3]; mouse, plasma, Balb/C mice, single dose IV 5 mg/kg, read-out: Vss): 3.55 L/kg | Cmax [3, 14]: 1380 ng/mL | MRT inf [3, 14]: 8.21 h | MRT last [3, 14]: 6.76 h | Tmax [3, 14]: 2 h | AUC(0-inf) [3, 14]: 17000 ng·h/mL | AUC(0-t) [3, 14]: 16100 ng·h/mL | half-life ([3]; mouse, plasma, Balb/C mice, single dose PO 10 mg/kg, read-out: T1/2 (converted)): 5.56 h | Cmax [3, 15]: 5000 ng/mL | MRT last [3, 15]: 9.35 h | Tmax [3, 15]: 2 h | AUC(0-t) [3, 15]: 73900 ng·h/mL
